Assay [1] has as its system LNCaP prostate cancer cell. Briefly: LNCaP cell viability (CellTiter-Glo). The format is cell-based. Particulars: Homo sapiens, 72 h; LNCaP cell viability, 3 days, CellTiter-Glo; Table 4. The procedure, abridged:
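CellTiter-Glo luminescence measured three days after dosing with a 12-point 3-fold compound dilution series. LNCaP cells seeded at 5000/well in RPMI 1640 with 10% FBS; data normalized to untreated controls and IC50 fitted by nonlinear least-squares regression.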

In another assay the target is P300 (Homo sapiens, UniProt Q09472). In words: percentage of inhibition (degradation) of p300 at 10 nM, Tables 2-4. The format is cell-based. Details: LNCaP or 22RV1 cells that express CBP/P300 proteins were treated with GNE-781 or the bivalent compounds; endogenous in cells; host or cells: LNCaP or 22RV1 (not given). The settings on record: p300, 10 nM; Table 4; read-out: Degradation (10 nM). The procedure, abridged:
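Degradation was measured at 10 nM. Cells or tissue were lysed in RIPA with protease and phosphatase inhibitors for 30 min at 4 °C and cleared, and protein was quantified by BCA. Lysates were resolved by SDS-PAGE, detected by chemiluminescent immunoblot, and bands were quantified by densitometry.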

P300, sequence (Q09472 whole entry): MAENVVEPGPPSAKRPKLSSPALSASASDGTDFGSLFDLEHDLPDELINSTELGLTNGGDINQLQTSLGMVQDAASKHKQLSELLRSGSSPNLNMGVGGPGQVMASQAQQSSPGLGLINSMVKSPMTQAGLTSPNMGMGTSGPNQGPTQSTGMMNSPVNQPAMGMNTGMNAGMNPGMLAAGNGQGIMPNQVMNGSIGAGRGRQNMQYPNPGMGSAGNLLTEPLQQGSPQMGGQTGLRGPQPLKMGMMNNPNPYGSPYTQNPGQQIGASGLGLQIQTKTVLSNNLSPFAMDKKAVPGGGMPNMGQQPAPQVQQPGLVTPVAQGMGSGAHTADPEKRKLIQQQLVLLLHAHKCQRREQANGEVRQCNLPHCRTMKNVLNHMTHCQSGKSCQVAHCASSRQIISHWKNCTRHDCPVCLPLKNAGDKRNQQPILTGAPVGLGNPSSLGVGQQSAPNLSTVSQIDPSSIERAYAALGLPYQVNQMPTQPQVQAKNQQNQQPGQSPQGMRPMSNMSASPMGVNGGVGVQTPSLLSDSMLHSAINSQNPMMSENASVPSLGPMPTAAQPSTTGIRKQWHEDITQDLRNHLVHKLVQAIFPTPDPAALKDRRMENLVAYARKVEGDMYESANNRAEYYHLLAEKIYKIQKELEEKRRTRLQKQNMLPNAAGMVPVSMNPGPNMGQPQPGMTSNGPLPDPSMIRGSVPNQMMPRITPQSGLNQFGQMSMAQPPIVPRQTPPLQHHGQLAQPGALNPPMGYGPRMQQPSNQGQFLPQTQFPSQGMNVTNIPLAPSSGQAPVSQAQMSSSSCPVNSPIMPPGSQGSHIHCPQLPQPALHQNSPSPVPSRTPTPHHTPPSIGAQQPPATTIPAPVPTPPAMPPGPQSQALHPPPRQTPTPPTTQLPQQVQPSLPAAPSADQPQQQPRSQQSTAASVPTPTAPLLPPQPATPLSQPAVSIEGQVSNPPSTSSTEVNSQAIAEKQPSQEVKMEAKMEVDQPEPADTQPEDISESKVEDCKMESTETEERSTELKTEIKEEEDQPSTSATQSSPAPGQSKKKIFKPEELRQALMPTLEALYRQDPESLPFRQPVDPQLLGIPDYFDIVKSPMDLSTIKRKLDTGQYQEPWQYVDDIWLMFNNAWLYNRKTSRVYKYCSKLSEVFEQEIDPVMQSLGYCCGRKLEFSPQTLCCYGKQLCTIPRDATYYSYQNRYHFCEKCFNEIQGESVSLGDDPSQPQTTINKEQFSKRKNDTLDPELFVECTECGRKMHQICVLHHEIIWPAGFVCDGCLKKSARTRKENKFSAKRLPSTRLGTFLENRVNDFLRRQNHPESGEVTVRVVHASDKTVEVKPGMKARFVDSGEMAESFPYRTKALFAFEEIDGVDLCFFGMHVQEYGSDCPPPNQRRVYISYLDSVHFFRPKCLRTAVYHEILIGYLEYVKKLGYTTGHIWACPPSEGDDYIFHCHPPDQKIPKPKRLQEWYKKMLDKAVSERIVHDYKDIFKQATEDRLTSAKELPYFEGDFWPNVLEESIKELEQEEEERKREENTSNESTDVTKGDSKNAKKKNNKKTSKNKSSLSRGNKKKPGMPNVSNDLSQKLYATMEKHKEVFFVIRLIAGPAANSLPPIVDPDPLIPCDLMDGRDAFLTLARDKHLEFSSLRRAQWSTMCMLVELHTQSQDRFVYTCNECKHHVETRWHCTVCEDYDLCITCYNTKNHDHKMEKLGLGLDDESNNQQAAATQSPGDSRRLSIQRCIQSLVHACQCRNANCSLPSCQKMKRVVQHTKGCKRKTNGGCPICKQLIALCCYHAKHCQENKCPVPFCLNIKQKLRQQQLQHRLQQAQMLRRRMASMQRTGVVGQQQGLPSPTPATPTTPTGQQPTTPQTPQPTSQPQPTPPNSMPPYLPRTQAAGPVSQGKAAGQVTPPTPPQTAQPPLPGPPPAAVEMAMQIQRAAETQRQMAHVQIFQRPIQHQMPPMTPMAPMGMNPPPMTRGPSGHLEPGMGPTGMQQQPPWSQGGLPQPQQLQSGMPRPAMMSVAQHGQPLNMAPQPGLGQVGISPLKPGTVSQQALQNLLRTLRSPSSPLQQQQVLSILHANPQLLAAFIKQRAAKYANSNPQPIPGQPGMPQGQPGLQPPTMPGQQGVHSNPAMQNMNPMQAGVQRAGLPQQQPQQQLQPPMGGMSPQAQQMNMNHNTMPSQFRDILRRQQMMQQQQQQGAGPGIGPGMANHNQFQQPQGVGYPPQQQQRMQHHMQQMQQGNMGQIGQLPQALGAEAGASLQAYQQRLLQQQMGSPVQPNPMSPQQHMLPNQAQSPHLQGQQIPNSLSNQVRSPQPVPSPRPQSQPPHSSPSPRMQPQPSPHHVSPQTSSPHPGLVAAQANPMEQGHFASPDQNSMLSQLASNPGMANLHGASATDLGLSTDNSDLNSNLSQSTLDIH

As a reminder, the IC50 is the concentration that inhibits the measured activity by half. Higher therefore signals weaker potency in that assay. The compound `CC(=O)N1CCc2c(c(N3CCCc4cc(-c5cnn(C)c5)c(C(F)F)cc43)nn2C2CCN(C(=O)CCN3CCC(C#Cc4cccc5c4n(C)c(=O)n5C4CCC(=O)NC4=O)CC3)CC2)C1` (centres unmarked) [P-231, 3-(4-((1-(3-(4-(5-acetyl-3-(7-(difluoromethyl)-6-(1-methyl-1H-pyrazol-4-yl)-3,4-dihydroquinolin-1(2H)-yl)-4,5,6,7-tetrahydro-1H-pyrazolo[4,3-c]pyridin-1-yl)piperidin-1-yl)-3-oxopropyl)piperidin-4-yl)ethynyl)-3-methyl-2-oxo-2,3-dihydro-1H-benzo[d]imidazol-1-yl)piperidine-2,6-dione] showed an IC50 in assay [1] of 1.3 nM. The inhibition at 0.01 µM on P300 was over 80%.

For `CC(=O)N1CCc2c(c(N3CCCc4cc(-c5cnn(C)c5)c(C(F)F)cc43)nn2C2CCN(C(=O)CCN3CCC(CCc4cccc5c4n(C)c(=O)n5C4CCC(=O)NC4=O)CC3)CC2)C1` (centres unmarked) [P-232, 3-(4-(2-(1-(3-(4-(5-Acetyl-3-(7-(difluoromethyl)-6-(1-methyl-1H-pyrazol-4-yl)-3,4-dihydroquinolin-1(2H)-yl)-4,5,6,7-tetrahydro-1H-pyrazolo[4,3-c]pyridin-1-yl)piperidin-1-yl)-3-oxopropyl)piperidin-4-yl)ethyl)-3-methyl-2-oxo-2,3-dihydro-1H-benzo[d]imidazol-1-yl)piperidine-2,6-dione], the IC50 in assay [1] stood at 12.9 nM. Besides, on P300, the inhibition at 0.01 µM is over 80%.

Regarding `CC(=O)N1CCc2c(c(N3CCCc4cc(-c5cnn(C)c5)c(C(F)F)cc43)nn2C2CCN(C(=O)CCN3CCN(CC#Cc4ccc5c(c4)n(C)c(=O)n5C4CCC(=O)NC4=O)CC3)CC2)C1` (centres unmarked) [P-233, 3-(5-(3-(4-(3-(4-(5-Acetyl-3-(7-(difluoromethyl)-6-(1-methyl-1H-pyrazol-4-yl)-3,4-dihydroquinolin-1(2H)-yl)-4,5,6,7-tetrahydro-1H-pyrazolo[4,3-c]pyridin-1-yl)piperidin-1-yl)-3-oxopropyl)piperazin-1-yl)prop-1-yn-1-yl)-3-methyl-2-oxo-2,3-dihydro-1H-benzo[d]imidazol-1-yl)piperidine-2,6-dione], the IC50 in assay [1] is 18.2 nM. The inhibition at 0.01 µM on P300 lay within 50 to 80%.

Turning to `CC(=O)N1CCc2c(c(N3CCCc4cc(-c5cnn(C)c5)c(C(F)F)cc43)nn2C2CCN(C(=O)CCN3CCN(CCCc4ccc5c(c4)n(C)c(=O)n5C4CCC(=O)NC4=O)CC3)CC2)C1` (centres unmarked) [P-234, 3-(5-(3-(4-(3-(4-(5-acetyl-3-(7-(difluoromethyl)-6-(1-methyl-1H-pyrazol-4-yl)-3,4-dihydroquinolin-1(2H)-yl)-4,5,6,7-tetrahydro-1H-pyrazolo[4,3-c]pyridin-1-yl)piperidin-1-yl)-3-oxopropyl)piperazin-1-yl)propyl)-3-methyl-2-oxo-2,3-dihydro-1H-benzo[d]imidazol-1-yl)piperidine-2,6-dione], the IC50 in assay [1] came to 6.8 nM. Besides, the inhibition at 0.01 µM on P300 is over 80%.

In turn, `CC(=O)N1CCc2c(c(N3CCCc4cc(-c5cnn(C)c5)c(C(F)F)cc43)nn2C2CCN(CCCN3CCC(Cn4c(=O)n(C5CCC(=O)NC5=O)c5ccccc54)CC3)CC2)C1` (centres unmarked) [P-235, 3-(3-((1-(3-(4-(5-Acetyl-3-(7-(difluoromethyl)-6-(1-methyl-1H-pyrazol-4-yl)-3,4-dihydroquinolin-1(2H)-yl)-4,5,6,7-tetrahydro-1H-pyrazolo[4,3-c]pyridin-1-yl)piperidin-1-yl)propyl)piperidin-4-yl)methyl)-2-oxo-2,3-dihydro-1H-benzo[d]imidazol-1-yl)piperidine-2,6-dione] came in with an IC50 in assay [1] of 844 nM. Further, at P300, the inhibition at 0.01 µM is under 20%.

Compound `CC(=O)N1CCc2c(c(N3CCCc4cc(-c5cnn(C)c5)c(C(F)F)cc43)nn2C2CCN(C(=O)CN3CCN(CCCc4cccc5c4n(C)c(=O)n5C4CCC(=O)NC4=O)CC3)CC2)C1` (centres unmarked) [P-237, 3-(4-(3-(4-(2-(4-(5-Acetyl-3-(7-(difluoromethyl)-6-(1-methyl-1H-pyrazol-4-yl)-3,4-dihydroquinolin-1(2H)-yl)-4,5,6,7-tetrahydro-1H-pyrazolo[4,3-c]pyridin-1-yl)piperidin-1-yl)-2-oxoethyl)piperazin-1-yl)propyl)-3-methyl-2-oxo-2,3-dihydro-1H-benzo[d]imidazol-1-yl)piperidine-2,6-dione] showed an IC50 in assay [1] of 307 nM. For the same compound, the inhibition at 0.01 µM on P300 was 20 to 50%.

`CC(=O)N1CCc2c(c(N3CCCc4cc(-c5cnn(C)c5)c(C(F)F)cc43)nn2C2CCN(C(=O)CCN3CCN(CC#Cc4cccc5c4n(C)c(=O)n5C4CCC(=O)NC4=O)CC3)CC2)C1` (centres unmarked) [P-238, 3-(4-(3-(4-(3-(4-(5-Acetyl-3-(7-(difluoromethyl)-6-(1-methyl-1H-pyrazol-4-yl)-3,4-dihydroquinolin-1(2H)-yl)-4,5,6,7-tetrahydro-1H-pyrazolo[4,3-c]pyridin-1-yl)piperidin-1-yl)-3-oxopropyl)piperazin-1-yl)prop-1-yn-1-yl)-3-methyl-2-oxo-2,3-dihydro-1H-benzo[d]imidazol-1-yl)piperidine-2,6-dione] registered an IC50 in assay [1] of 81.1 nM. On P300, the inhibition at 0.01 µM fell in the range of 20 to 50%.

The compound `CC(=O)N1CCc2c(c(N3CCCc4cc(-c5cnn(C)c5)c(C(F)F)cc43)nn2C2CCN(C(=O)CCN3CCN(CCCc4cccc5c4n(C)c(=O)n5C4CCC(=O)NC4=O)CC3)CC2)C1` (centres unmarked) [P-239, 3-(4-(3-(4-(3-(4-(5-Acetyl-3-(7-(difluoromethyl)-6-(1-methyl-1H-pyrazol-4-yl)-3,4-dihydroquinolin-1(2H)-yl)-4,5,6,7-tetrahydro-1H-pyrazolo[4,3-c]pyridin-1-yl)piperidin-1-yl)-3-oxopropyl)piperazin-1-yl)propyl)-3-methyl-2-oxo-2,3-dihydro-1H-benzo[d]imidazol-1-yl)piperidine-2,6-dione] came in with an IC50 in assay [1] of 263 nM. Also, at P300, the inhibition at 0.01 µM is under 20%.

The compound `CC(=O)N1CCc2c(c(N3CCCc4cc(-c5cnn(C)c5)c(C(F)F)cc43)nn2C2CCN(C(=O)CCCCCCNc3ccc(C(=O)NC4CCC(=O)NC4=O)c4ncccc34)CC2)C1` (centres unmarked) [P-240, 5-((7-(4-(5-acetyl-3-(7-(difluoromethyl)-6-(1-methyl-1H-pyrazol-4-yl)-3,4-dihydroquinolin-1(2H)-yl)-4,5,6,7-tetrahydro-1H-pyrazolo[4,3-c]pyridin-1-yl)piperidin-1-yl)-7-oxoheptyl)amino)-N-(2,6-dioxopiperidin-3-yl)quinoline-8-carboxamide] showed an IC50 in assay [1] of 1.4 nM. The inhibition at 0.01 µM at P300 was over 80%.

Compound `CC(=O)N1CCc2c(c(N3CCCc4cc(-c5cnn(C)c5)c(C(F)F)cc43)nn2C2CCN(C(=O)CCCCNc3ccc(C(=O)NC4CCC(=O)NC4=O)c4ncccc34)CC2)C1` (centres unmarked) [P-241, 5-((5-(4-(5-acetyl-3-(7-(difluoromethyl)-6-(1-methyl-1H-pyrazol-4-yl)-3,4-dihydroquinolin-1(2H)-yl)-4,5,6,7-tetrahydro-1H-pyrazolo[4,3-c]pyridin-1-yl)piperidin-1-yl)-5-oxopentyl)amino)-N-(2,6-dioxopiperidin-3-yl)quinoline-8-carboxamide] gave an IC50 in assay [1] of 1.4 nM. Moreover, the inhibition at 0.01 µM at P300 was over 80%.

`CC(=O)N1CCc2c(c(N3CCCc4cc(-c5cnn(C)c5)c(C(F)F)cc43)nn2C2CCN(C(=O)CCCCCNc3ccc(C(=O)NC4CCC(=O)NC4=O)c4ncccc34)CC2)C1` (centres unmarked) [P-242, 5-((6-(4-(5-acetyl-3-(7-(difluoromethyl)-6-(1-methyl-1H-pyrazol-4-yl)-3,4-dihydroquinolin-1(2H)-yl)-4,5,6,7-tetrahydro-1H-pyrazolo[4,3-c]pyridin-1-yl)piperidin-1-yl)-6-oxohexyl)amino)-N-(2,6-dioxopiperidin-3-yl)quinoline-8-carboxamide] returned an IC50 in assay [1] of 1.1 nM. Besides, the inhibition at 0.01 µM at P300 was over 80%.

In assay [1], `CC(=O)N1CCc2c(c(N3CCCc4cc(-c5cnn(C)c5)c(C(F)F)cc43)nn2C2CCN(CCCN3CCC(C#Cc4ccc5c(c4)n(C)c(=O)n5C4CCC(=O)NC4=O)CC3)CC2)C1` (centres unmarked) [P-243, 3-(5-((1-(3-(4-(5-acetyl-3-(7-(difluoromethyl)-6-(1-methyl-1H-pyrazol-4-yl)-3,4-dihydroquinolin-1(2H)-yl)-4,5,6,7-tetrahydro-1H-pyrazolo[4,3-c]pyridin-1-yl)piperidin-1-yl)propyl)piperidin-4-yl)ethynyl)-3-methyl-2-oxo-2,3-dihydro-1H-benzo[d]imidazol-1-yl)piperidine-2,6-dione] gave an IC50 of 0.2 nM. At P300, the inhibition at 0.01 µM is over 80%.

In assay [1], `CC(=O)N1CCc2c(c(N3CCCc4cc(-c5cnn(C)c5)c(C(F)F)cc43)nn2C2CCN(CCCN3CCC(CCc4ccc5c(c4)n(C)c(=O)n5C4CCC(=O)NC4=O)CC3)CC2)C1` (centres unmarked) [P-244, 3-(5-(2-(1-(3-(4-(5-acetyl-3-(7-(difluoromethyl)-6-(1-methyl-1H-pyrazol-4-yl)-3,4-dihydroquinolin-1(2H)-yl)-4,5,6,7-tetrahydro-1H-pyrazolo[4,3-c]pyridin-1-yl)piperidin-1-yl)propyl)piperidin-4-yl)ethyl)-3-methyl-2-oxo-2,3-dihydro-1H-benzo[d]imidazol-1-yl)piperidine-2,6-dione] returned an IC50 of 0.8 nM. For the same compound, the inhibition at 0.01 µM on P300 was over 80%.
